Entries after “also recorded” stand apart in the source; their conditions may differ.

Series [1] concerns IκB kinase (IKK) complex. In words: IKK kinase assay on IKK complex immunoprecipitated from treated BMDM (IκBα N-terminus substrate). Type of series: cell-based, mice. The method, then: Kinase assays and immunoblotting were performed according to Li et al. ((1999) J. Exp. Med. 189:1839-1845). Briefly, BMDM were treated with ISS-ODN (5 μg/ml), M-ODN (5 μg/ml) on ps and po backbones as indicated, LPS-free bacterial DNA or methylated bacterial DNA (5 μg/ml), LPS-free calf thymus DNA (5 μg/ml), LPS (10 μg/ml) or TNFα (10 ng/ml) for the indicated time periods. Cell lysates were prepared and normalized by immunoblotting (IB) with anti-IKKα polyclonal antibodies (Santa Cruz, Santa Cruz Biotech Inc., Calif.), anti-IKKβ polyclonal antbodies (Santa Cruz) or anti-DNA-PKcs monoclonal antibodies (NeoMarker, Calif.). IκB kinase (IKK) complex or DNA-PK complex from 100 μg of the lysates were immunoprecipitated by anti-IKKα or by anti-DNA-PKcs antibodies. The kinase activities (KA) were determined by a kinase assay using the N-terminus of IκBα (for IKK) or the N-terminus of p53 (for DNA-PK) as a substrate as previously described. Wang et al. (1992) Proc. Natl. Acad. Sci. USA 89:4231-4235; Li et al.(1999), supra; and Hammarsten et al. (2000) J. Biol. Chem. 275:1541-1545.

Series [2] concerns the target T1, Ku antigen (Ku70/Ku80 heterodimer) (Mus musculus, UniProt P23475+P27641).
T1 construct: from tissue; host or cells: mouse liver (BALB/c)
Description: EMSA inhibition study: cold ODN vs [32P]-labeled ds-ISS-ODN binding to Ku (affinity column fraction 20). The following applies: for displacement of the interaction of [32P]-labeled ds-ISS-ODN with Ku: unlabeled ODN 0.1, 0.2 and 0.4 μg, 10 μg of fraction 20. The procedure:
Purification of the ISS binding protein was accomplished by sequential ion exchange, heparin and ISS-ODN affinity chromatography, as follows. Due to the relative small tissue weight per spleen, liver lysate was used after confirming its reactivity to in vivo ISS injection, as described above. Crude liver extracts from 220 mice (BALB/c, Jackson Lab., Bar Harbour, Me.) or 15 New Zealand White rabbits (Simunek, Vista, Calif.) were prepared in homogenization buffer (20 mM HEPES, pH 7.6, 250 mM KCl, 0.1 mM EDTA, 0.5 mM EGTA, 20% glycerol) with 250 mM KCl and protease and phosphatase inhibitors and then centrifuged at 100,000×g for 1.5 hours at 4° C. The supernatant (400 ml) was filtered and loaded onto a Porous 20 QE column (17 ml, Pharmacia). Two μl (10 μg) of each fraction were used in a gel retardation assay to identify the location of proteins containing DNA binding activity using [^32P]-labeled ds-ISS-ODN as a probe. Fractions containing ISS-ODN binding activity were pooled (450 ml), buffered exchanged to low salt (50 mM KCl) and loaded onto a Heparin column (2 ml). The active fractions were subsequently loaded onto a 2 ml ds-ISS-ODN affinity column [CNBr-activated Sepharose 4B (Pharmacia) coupled to 320 μg of ds-ISS-ODNs with the sequence 5′-[…]-3′; SEQ ID NO: 21]. The column was washed with 8 ml of homogenization buffer containing 50 mM KCl and the bound proteins were eluted with a 20 ml linear gradient of 50 mM to 1.55 M KCl. One-ml fractions were collected and 2 μl of each were used to test for DNA binding activity. The active fractions were concentrated, separated by SDS-PAGE and stained with Coomassie Blue. The appearance of two bands with estimated molecular weights of 70 KDa and 80 KDa correlated with the DNA binding activity. Sequence analysis (Harvard Microsequencing Facility) of peptides derived from the two bands identified Ku70 and Ku80, respectively.
Mouse liver extracts were purified through anion (QE), heparin and ISS-based affinity chromatography, as described above. Two μl of each fraction (10 μg) were incubated with [^32 P]-labeled ds-ISS-ODN at 4° C. for 30 minutes. The samples were separated on a 5% acrylamide gel and the protein-DNA complexes were detected by autoradiography. […] The active fractions were separated by sodium dodecyl sulfate-polyacrylamide gel electrophoresis (SDS-PAGE), stained with Coomassie blue and micro-sequenced.
To verify the binding specificity of the Ku protein to ISS-ODN, inhibition studies were performed using cold ss or ds ISS or mutated (M, i.e., control) ODNs. Ten μg of fraction 20 from the affinity column were incubated with [^32P]-labeled ISS-ODN in the presence of unlabeled (0.1, 0.2 and 0.4 μg, respectively) ss-ISS-ODN (lanes 3-5), ds-ISS-ODN (lanes 7-9), ss-M-ODN (lanes 11-13) or ds-M-ODN (lanes 15-17).
In general terms: Mobility shift assays separate free from complexed probe on a gel.

Series [3] relates to bone marrow derived macrophages (BMDM). In words: IL-6 and IL-12 levels in BMDM culture supernatants by ELISA. Type of series: cell-based, mice. The following applies: BMDM. The method, then: Ku70^−/− and Ku80^−/− mice and their wild-type (wt) control on the 129 genetic background were generated by Dr. G. Li and bred at Memorial Sloan-Kettering Cancer Center (MSKCC), New York, N.Y. BMDM from wt, Ku70^−/− and Ku80^−/− mice (MSKCC) were prepared as was previously published (Martin-Orozco et al. (1999) Int. Immunol. 11:1111), and maintained in DMEM with 10% FBS, antibiotics and 20% L-cell medium and cultured for about 10 days to allow them to mature. BMDM were seeded (2.5×10^5/well in triplicate) on 96-well plates and treated with LPS (10 μg/ml), ISS-ODN (5 μg/ml) or M-ODN (5 μg/ml).
BMDM (2.5×10^5/well) from wt, or Ku70^−/− and Ku80^−/− mice were treated with LPS (1 μg/ml), ISS-ODN (5 μg/ml) or M-ODN (5 μg/ml) for 24 hours. IL-6 (A) or IL-12 (B) levels in the supernatants were determined by ELISA. Results are means±S.D, of 5 separate experiments for wt and Ku70^−/− and 3 separate experiments for Ku80^−/− mice. (C) BMDM were incubated with LPS (10 μg/ml) or ISS-ODN (5 μg/ml) for 6.5 hours. Total RNA was isolated and analyzed for the presence of IL-6, IL-12 and GAPDH messages by a Northern blot assay, as described in Example 1. Results are means±S.D. of 5 separate experiments for wt and Ku70^−/− and 3 separate experiments for Ku80^−/− mice.
DNA-PKcs^−/− and their wt control mice on the 129 genetic background were generated by Dr. G. C. Li and bred at Memorial Sloan-Kettering Cancer Center, New York, N.Y. IKKβ^−/− Tnfr1^−/− mice were generated by Drs. Z-W Li and Karin M. ATM^−/− mice on the C57BL/6 background were generated and bred by Dr. Y. Xu (UCSD) as was previously described (Xu et al.(1996) Genes Dev. 10:2411-2422) while their wild-type (wt) control were purchased from Jackson Laboratories (Bar Harbor, Me.). BMDMs from wt, DNA-PKcs^−/− mice, IKKβ^−/− Tnfr1^−/− and ATM^−/− mice were prepared as was previously published (Martin-Orozco et al. (1999) Intl. Immunol. 11:1111-1118), maintained in DMEM with 10% FBS, antibiotics and 20% L-cell medium and cultured for 7-10 days to allow them to mature. Prior to use BMDM were seeded (2.5×10^5/well in triplicate) in 96-well plates and than treated with LPS (1 μg/ml), ISS-ODN (5 μg/ml) or M-ODN (5 μg/ml), po-ISS-ODN (10 μg/ml) or po-ds-ISS-ODN (10 μg/ml), LPS-free, ultra pure bacterial DNA (E. coli, Sigma) (15 μg/ml) or methylated bacterial DNA or LPS-free, ultra pure calf thymus DNA (Sigma) (15 μg/ml). Methylation of bacterial DNA was performed by SssI methylase (Biolab, Boston, Mass.) (15 μg/ml) following manufacturer's instruction. Where indicated the PI3K inhibitor wortmannin (Wm), at various concentrations, was added to ISS-ODN or LPS stimulated BMDMs. After 24 hours in culture, the supernatants were collected and assayed for IL-6 and IL-12 levels by ELISA kits (PharMingen, San Diego, Calif.).
(An ELISA detects its analyte on a solid surface through an enzyme-linked reagent.)

The target in series [4] is T2, DNA-PK (Homo sapiens, UniProt P12956+P13010+P78527).
T2 construct: purchased Promega
In words: In vitro DNA-PK phosphorylation assay (affinity-purified DNA-PK, GST-p53 (1-70) substrate). In kind it is biochemical. Conditions: 30° C., 30 minutes; ps-ss ODNs 0-1, po-ISS-ODN 20-100, po-ds-ISS-ODN 0-10, genomic DNAs 1-5 ng/reaction. The method, then:
The in vitro DNA-PK phosphorylation assay was performed according to Hammarsten et al. (2000), supra, with modification. Briefly, affinity-purified DNA-PK (Promega, Mo.) was incubated with various DNA preparations (described below), 0.5 μg of GST-p53 (1-70) and 3.3 μCi of γ-^32p-ATP in a 20 μl reaction buffer (10 mM Tris-Cl, 5 mM MgCl2, 0.3 mM EDTA and 10 μM ATP) at 30° C. for 30 minutes. The reaction was stopped by addition of 4× loading buffer. The samples were boiled, loaded on 9% SDS-PAGE, transferred onto a PVDF membrane and visualized by autoradiography.
The ODNs (ps-ss) used include an ISS-ODN with an active CpG motif (AACGTT), a methylated ISS-ODN at the ^5C of the CpG dinucleotide (AA*CGTT) and various control ODNs. These ODNs were incubated at concentrations of 0, 0.1, 0.3, or 1 ng/reaction. The po-ISS-ODN was incubated at concentration of 20, 50 or 100 ng/reaction. The po-ds-ISS-ODN was incubated at concentration of 0, 0.5, 1, 2, 5 or 10 ng/reaction. The bacterial or calf thymus DNAs were each incubated at concentration of 1, 2 or 5 ng/reaction. Electrophoretic gel mobility shift assay (EMSA) was performed as previously described. Chu et al. (1999) Immunity 11:721-731; and Li et al., 1999, supra). In vitro IKK kinase assays were performed using purified IKK derived from Sf9 insect cell lysates as was previously described. Zandi et al. (1998) Science 281:1360-1363.

Series [5] deals with IL-6, IL-12 message in liver. Description: RT-PCR for IL-6 and IL-12 message in livers of mice injected i.v. with ODN. In kind it is in vivo. The following applies: mice i.v. 200 μl (1 μg/μl in PBS) of ss or ds ODN; 2.5 hours.

T1 sequence (P23475 2-608 limits assumed): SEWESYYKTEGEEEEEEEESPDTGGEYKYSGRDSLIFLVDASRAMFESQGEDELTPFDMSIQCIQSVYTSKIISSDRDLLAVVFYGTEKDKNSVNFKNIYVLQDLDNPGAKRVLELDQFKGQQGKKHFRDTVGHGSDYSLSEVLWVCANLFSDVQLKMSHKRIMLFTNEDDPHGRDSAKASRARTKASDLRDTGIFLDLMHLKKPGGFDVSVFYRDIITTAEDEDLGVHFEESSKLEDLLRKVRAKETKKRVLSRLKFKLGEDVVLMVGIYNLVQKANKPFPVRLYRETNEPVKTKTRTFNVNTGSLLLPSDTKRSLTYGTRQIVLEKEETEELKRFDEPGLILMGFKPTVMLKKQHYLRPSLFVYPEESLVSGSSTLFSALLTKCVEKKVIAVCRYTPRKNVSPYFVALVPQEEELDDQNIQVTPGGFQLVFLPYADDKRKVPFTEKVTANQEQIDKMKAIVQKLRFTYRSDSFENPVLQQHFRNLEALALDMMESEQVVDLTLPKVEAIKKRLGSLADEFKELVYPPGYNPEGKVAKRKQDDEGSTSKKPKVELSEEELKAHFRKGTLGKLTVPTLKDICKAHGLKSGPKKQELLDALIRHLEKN
T1 sequence (P27641 whole entry): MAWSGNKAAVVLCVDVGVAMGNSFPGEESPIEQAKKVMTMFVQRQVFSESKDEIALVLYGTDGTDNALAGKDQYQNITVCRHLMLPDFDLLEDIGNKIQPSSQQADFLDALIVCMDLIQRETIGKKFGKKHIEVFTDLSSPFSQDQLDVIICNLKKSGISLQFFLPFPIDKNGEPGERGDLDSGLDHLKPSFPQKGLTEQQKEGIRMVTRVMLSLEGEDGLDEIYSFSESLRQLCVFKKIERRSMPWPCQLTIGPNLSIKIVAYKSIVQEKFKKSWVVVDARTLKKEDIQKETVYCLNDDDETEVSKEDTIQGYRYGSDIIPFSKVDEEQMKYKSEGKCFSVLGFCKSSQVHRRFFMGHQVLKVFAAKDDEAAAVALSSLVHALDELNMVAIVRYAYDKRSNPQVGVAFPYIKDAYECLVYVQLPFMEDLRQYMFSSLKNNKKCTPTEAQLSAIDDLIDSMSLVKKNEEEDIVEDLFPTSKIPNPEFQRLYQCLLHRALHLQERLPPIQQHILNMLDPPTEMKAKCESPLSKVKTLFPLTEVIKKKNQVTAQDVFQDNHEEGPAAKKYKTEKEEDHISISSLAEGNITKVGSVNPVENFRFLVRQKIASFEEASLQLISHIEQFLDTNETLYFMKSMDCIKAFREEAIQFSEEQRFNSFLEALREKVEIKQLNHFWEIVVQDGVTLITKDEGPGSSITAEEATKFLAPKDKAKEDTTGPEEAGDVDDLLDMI

Regarding TNFα [reference compound], the IKK activation entry in series [1] (DNA-PKcs-/- BMDM as compared to wt) was “fully responsive”.

For “5′-TGACTGTGAACCTTAGAGATGA-3′ [ds-M-ODN, reference compound]”, the “displacement of the interaction of [32P]-labeled ds-ISS-ODN with Ku” value in series [2] is listed as “did not have any significant effect”.

For the compound `O=c1cc(N2CCOCC2)oc2c(-c3ccccc3)cccc12` [Ly, Ly294002, reference compound], the “inhibition of LPS-induced secretion of IL-6 and IL-12” value in series [3] was “did not inhibit”.

Regarding “5′-TGACTGTGAACGTTCGAGATGA-3′ [ds-ISS-ODN]”, the “displacement of the interaction of [32P]-labeled ds-ISS-ODN with Ku” value in series [2] was “displaced the interaction”.

In the case of “5′-TGACTGTGAA*CGTTAGAGATGA-3′ (DNA TGACTGTGAACGTTAGAGATGA; 5-methylcytosine, chemistry not fully specified) [Methylated ISS-ODN, *C denotes 5-methyl C, reference compound]”, the “DNA-PK activity in vitro (phosphorylation of the N-terminal portion of p53)” value in series [4] was “weaker DNA-PK activators than their unmethylated counterparts”.

Consider “5′-TGACTGTGAAGGTTAGAGATGA-3′ [M-ODN, reference compound]”, for which, in series [5], the “IL-6 and IL-12 message in liver (RT-PCR)” value is “did not display any immune stimulation; also recorded: lack of induction”. In addition, in series [1] (wt BMDM), the IKK activation entry is “little increase in IKK activity”. Further, in series [1] (wt BMDM (FIG. 5B)), the “IKK activation, concentration series” value is on record as “little IKK activation”. For the same compound, the “interaction of Ku with ODN” value in series [2] was “lack of interaction”.

With `COC[C@H]1OC(=O)c2coc3c2[C@@]1(C)C1=C(C3=O)[C@@H]2CCC(=O)[C@@]2(C)C[C@H]1OC(C)=O` [Wm, wortmannin, reference compound], in series [3], the “inhibition of LPS-induced secretion of IL-6 and IL-12” value is “did not inhibit”. The “effect on IKK activation by TNFα” value in series [1] (Wm at 1000 nM) is “no effect”.

The record behind these values is patent publication US6893821B2, “Agents that modulate DNA-PK activity and methods of use thereof” (The Regents of the University of California, priority 2000, dated 2005).
